“Also recorded” adds a separate entry of the source. Read-outs that look alike come from different tables or passages of the source.
Legend:
[1] = test system: A/Puerto Rico/8/34 (H1N1) influenza virus; assay: Antiviral (cytoprotection, MTT) assay against influenza virus in MDCK cells; type: cell-based; conditions: for SI: CC50/IC50 ratio, influenza H1N1 / MDCK; for IC50: 48 h
Coxsackie B3 virus [2] = assay: Antiviral (cytoprotection, MTT) assay against Coxsackie B3 virus in Vero cells; type: cell-based, coxsackievirus B3; conditions: for SI: CC50/IC50 ratio, Coxsackie B3 / Vero; for IC50: Enterovirus B, B3, Vero, 48 h, 50% inhibition of virus replication, Vero cells
in vitro [3] = conditions: dog
in vitro [4] = conditions: African green monkey, CC50, Vero cells, MTT; concentration causing 50% cell death
[5] = test system: A/Puerto Rico/8/34 (H1N1) influenza virus; set-up: method as in PMID 32930935; conditions: cited from earlier work; for IC50: 50% inhibition of virus replication, MDCK cells, earlier published compounds; for SI: CC50/IC50 ratio, influenza H1N1 / MDCK; for antiviral activity against influenza virus A H1N1 (in words): monosubstituted analogues
Coxsackie B3 virus [6] = test system: Coxsackie B3 virus; set-up: method as in PMID 32930935; conditions: cited from earlier work; for IC50: 50% inhibition of virus replication, Vero cells; for SI: CC50/IC50 ratio, Coxsackie B3 / Vero
MDCK cells = conditions: earlier published compounds; cited from earlier work
Vero cells = conditions: cited from earlier work
[7] = Influenza A virus, H1N1, MDCK, 50% inhibition of virus replication, MDCK cells, read-out: IC50
[8] = 50% inhibition of virus replication, MDCK cells, read-out: IC50

SMILES	SI [1]	IC50 [1, 7]	SI (Coxsackie B3 virus [2])	IC50 (Coxsackie B3 virus [2])	CC50 (in vitro [3])	CC50 (in vitro [4])	IC50 [5]	SI [5]	SI (Coxsackie B3 virus [6])	other results
Cc1cc(=O)n(Cc2cn(C3OC(CO)C(O)C3O)nn2)c(=O)n1Cc1cn(C2OC(CO)C(O)C2O)nn1 (stereo not shown) [Compound 2g]	1	> 100 µM	1	> 543 µM	> 543 µM	> 543 µM				IC50 ([1]; Influenza A virus, H1N1, MDCK): > 543 µM; antiviral activity against influenza virus A H1N1 (in words) ([1]; MDCK cells): did not demonstrate antiviral activity
Cc1cc(=O)n(CCCc2cn(C3OC(CO)C(O)C3O)nn2)c(=O)n1CCCc1cn(C2OC(CO)C(O)C2O)nn1 (stereo not shown) [Compound 2h]	1	> 100 µM	1	> 493 µM	> 493 µM	> 493 µM				IC50 ([1]; Influenza A virus, H1N1, MDCK): > 493 µM
Cc1cc(=O)[nH]c(=O)n1Cc1cn([C@@H]2O[C@H](CO)[C@@H](O)[C@H]2O)nn1 [Compound 2j]							> 885 µM	1	1 ^4	antiviral activity against influenza virus A H1N1 (in words) [5]: did not demonstrate antiviral activity; IC50 (Coxsackie B3 virus [6]): > 1180 µM; CC50 (MDCK cells): > 885 µM; CC50 (Vero cells): > 1180 µM
Cc1cc(=O)[nH]c(=O)n1CCCc1cn([C@@H]2O[C@H](CO)[C@@H](O)[C@H]2O)nn1 [Compound 2k]							43 ± 5 µM	6 ^4	1 ^4,3	IC50 (Coxsackie B3 virus [6]): > 1090 µM; CC50 (Vero cells): > 1090 µM
Cc1cc(=O)[nH]c(=O)n1CCCCc1cn([C@@H]2O[C@H](CO)[C@@H](O)[C@H]2O)nn1 [Compound 2m]							48 ± 6 µM	6 ^4	6 ^4,3	IC50 (Coxsackie B3 virus [6]): 106 ± 11 µM
CC(=O)OCC1OC(n2cc(CCCCn3c(=O)c4ccccc4n(CCCCc4cn(C5OC(COC(C)=O)C(OC(C)=O)C5OC(C)=O)nn4)c3=O)nn2)C(OC(C)=O)C1OC(C)=O (stereo not shown) [Compound 4f]	3	104 ± 15.1 µM			> 324 µM					antiviral activity against influenza virus A H1N1 (in words) ([1]; MDCK cells): inactive
O=c1c2ccccc2n(Cc2cn(C3OC(CO)C(O)C3O)nn2)c(=O)n1Cc1cn(C2OC(CO)C(O)C2O)nn1 (stereo not shown) [Compound 4g]	3	> 100 µM	2	> 170 µM	> 510 µM	381 ± 26.1 µM				IC50 [1, 8]: 180 ± 19.9 µM
O=c1c2ccccc2n(CCCc2cn(C3OC(CO)C(O)C3O)nn2)c(=O)n1CCCc1cn(C2OC(CO)C(O)C2O)nn1 (stereo not shown) [Compound 4h]	3	> 100 µM	1	> 465 µM	> 465 µM	> 465 µM				IC50 [1, 8]: 186 ± 21.6 µM; antiviral activity against influenza virus A H1N1 (in words) ([1]; MDCK cells): did not demonstrate antiviral activity
O=c1c2ccccc2n(CCCCc2cn(C3OC(CO)C(O)C3O)nn2)c(=O)n1CCCCc1cn(C2OC(CO)C(O)C2O)nn1 (stereo not shown) [Compound 4i]	2	297 µM	1	> 446 µM	> 446 µM	> 446 µM				IC50 [1, 8]: 297 ± 32.4 µM
O=c1[nH]c(=O)n(Cc2cn([C@@H]3O[C@H](CO)[C@@H](O)[C@H]3O)nn2)c2ccccc12 [Compound 4j]							42 ± 5 µM	3	1 ^4	IC50 (Coxsackie B3 virus [6]): 133 ± 15 µM
O=c1[nH]c(=O)n(CCCc2cn([C@@H]3O[C@H](CO)[C@@H](O)[C@H]3O)nn2)c2ccccc12 [Compound 4k]							212 ± 25 µM	4 ^4	1 ^4,3	antiviral activity against influenza virus A H1N1 (in words) [5]: did not demonstrate antiviral activity; IC50 (Coxsackie B3 virus [6]): > 82 µM; CC50 (MDCK cells): > 744 µM; CC50 (Vero cells): 101 ± 8 µM
O=c1[nH]c(=O)n(CCCCc2cn([C@@H]3O[C@H](CO)[C@@H](O)[C@H]3O)nn2)c2ccccc12 [Compound 4m]							30 ± 4 µM	24	1 ^4,3	IC50 (Coxsackie B3 virus [6]): > 79 µM; CC50 (MDCK cells): > 719 µM
O=c1c2nc3ccccc3nc2n(Cc2cn(C3OC(CO)C(O)C3O)nn2)c(=O)n1Cc1cn(C2OC(CO)C(O)C2O)nn1 (stereo not shown) [Compound 5g]	3	> 100 µM	1	> 468 µM	> 468 µM	> 468 µM				IC50 [1, 8]: 187 ± 20.8 µM
O=c1c2nc3ccccc3nc2n(CCCc2cn(C3OC(CO)C(O)C3O)nn2)c(=O)n1CCCc1cn(C2OC(CO)C(O)C2O)nn1 (stereo not shown) [Compound 5h]	4	> 100 µM	1	> 431 µM	> 431 µM	> 431 µM				IC50 [1, 8]: 115 ± 15.2 µM
CC(=O)OCC1OC(n2cc(CCCc3c(C)[nH]c(=O)n(CCCc4cn(C5OC(COC(C)=O)C(OC(C)=O)C5OC(C)=O)nn4)c3=O)nn2)C(OC(C)=O)C1OC(C)=O (stereo not shown) [Compound 11c]	12	29.2 ± 4.3 µM			> 349 µM					
CC(=O)OCC1OC(n2cc(CCCCc3c(C)[nH]c(=O)n(CCCCc4cn(C5OC(COC(C)=O)C(OC(C)=O)C5OC(C)=O)nn4)c3=O)nn2)C(OC(C)=O)C1OC(C)=O (stereo not shown) [Compound 11d]	3	119 ± 8.7 µM			> 338 µM					antiviral activity against influenza virus A H1N1 (in words) ([1]; MDCK cells): did not demonstrate antiviral activity; also recorded: inactive
Cc1[nH]c(=O)n(CCCc2cn(C3OC(CO)C(O)C3O)nn2)c(=O)c1CCCc1cn(C2OC(CO)C(O)C2O)nn1 (stereo not shown) [Compound 11e]	3	164 ± 19.2 µM	2	> 164 µM	> 493 µM	394 ± 21.1 µM				antiviral activity against influenza virus A H1N1 (in words) ([1]; MDCK cells): completely inactive
Cc1[nH]c(=O)n(CCCCc2cn(C3OC(CO)C(O)C3O)nn2)c(=O)c1CCCCc1cn(C2OC(CO)C(O)C2O)nn1 (stereo not shown) [Compound 11f]	1		1	> 471 µM	> 471 µM	> 471 µM				IC50 ([1]; Influenza A virus, H1N1, MDCK): > 471 µM; antiviral activity against influenza virus A H1N1 (in words) ([1]; MDCK cells): did not demonstrate antiviral activity
Cc1[nH]c(=O)[nH]c(=O)c1CCCc1cn([C@@H]2O[C@H](CO)[C@@H](O)[C@H]2O)nn1 [Compound 11g]							67 ± 8 µM	2 ^4	4 ^4	CC50 (MDCK cells): 104 ± 8 µM; CC50 (Vero cells): 140 ± 10 µM
Cc1[nH]c(=O)[nH]c(=O)c1CCCCc1cn([C@@H]2O[C@H](CO)[C@@H](O)[C@H]2O)nn1 [Compound 11h]							15 ± 3 µM	5	2 ^4	IC50 (Coxsackie B3 virus [6]): > 263 µM; CC50 (MDCK cells): 79 ± 6 µM; CC50 (Vero cells): 525 ± 31 µM
CC(=O)OC[C@H]1O[C@@H](n2cc(CCCCc3c(C)[nH]c(=O)[nH]c3=O)nn2)[C@H](OC(C)=O)[C@@H]1OC(C)=O [Compound 11i]							> 592 µM	1 ^4		antiviral activity against influenza virus A H1N1 (in words) [5]: did not demonstrate antiviral activity; CC50 (MDCK cells): > 592 µM
Cc1[nH]c(=O)[nH]c(=O)c1CCCCc1cn([C@@H]2O[C@H](CO)[C@@H](O)[C@H]2O)nn1 [Compound 11j]							> 787 µM	1		antiviral activity against influenza virus A H1N1 (in words) [5]: did not demonstrate antiviral activity; CC50 (MDCK cells): > 787 µM
CCC(CC)O[C@@H]1C=C(C(=O)O)C[C@H](N)[C@H]1NC(C)=O [Oseltamivir carboxylate, reference compound]	>667				> 200 µM					IC50 ([1]; Influenza A virus, H1N1, MDCK): 0.3 ± 0.06 µM
Cc1cc(CCCOc2c(C)cc(-c3noc(C(F)(F)F)n3)cc2C)on1 [Pleconaril, reference compound]			46	21.6 µM		> 1000 µM				
CC(N)C12CC3CC(CC(C3)C1)C2 (stereo not shown) [Rimantadine, reference compound]	4				340 ± 16 µM					IC50 ([1]; Influenza A virus, H1N1, MDCK): 77 ± 8 µM

From PMC8234143, “Synthesis and Antiviral Evaluation of Nucleoside Analogues Bearing One Pyrimidine Moiety and Two D-Ribofuranosyl Residues” (Molecules, 2021)
